Assays:
EGFR T790M L858R = target: T1, EGFR T790M L858R (Homo sapiens, UniProt P00533, L858R/T790M); experiment: EGFR T790M L858R biochemical assay (Caliper mobility shift); conditions: 5 μM ATP; apparent Ki (Morrison fit) converted by Cheng-Prusoff, Km of ATP 1.3 μM
T1 construct: purchased Life Technologies PV4879
Outline: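 Caliper mobility-shift read-out, electrophoretic separation of substrate from product, after a 30-minute kinase reaction at 22 °C. EDTA at 80 mM terminates each reaction.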

EGFR del746-750 T790M = target: T2, EGFR del746-750 T790M (Homo sapiens, UniProt P00533, DEL746-750/T790M); experiment: EGFR del746-750 T790M biochemical assay (Caliper mobility shift); conditions: 5 μM ATP; apparent Ki (Morrison fit) converted by Cheng-Prusoff, Km of ATP 2.1 μM; read-out: EGFR(T790M/d746-750) Ki
T2 construct: purchased Carna Biosciences 08-528
T2 sequence (P00533 with tags, fused parts or gaps DEL746-750/T790M limits assumed): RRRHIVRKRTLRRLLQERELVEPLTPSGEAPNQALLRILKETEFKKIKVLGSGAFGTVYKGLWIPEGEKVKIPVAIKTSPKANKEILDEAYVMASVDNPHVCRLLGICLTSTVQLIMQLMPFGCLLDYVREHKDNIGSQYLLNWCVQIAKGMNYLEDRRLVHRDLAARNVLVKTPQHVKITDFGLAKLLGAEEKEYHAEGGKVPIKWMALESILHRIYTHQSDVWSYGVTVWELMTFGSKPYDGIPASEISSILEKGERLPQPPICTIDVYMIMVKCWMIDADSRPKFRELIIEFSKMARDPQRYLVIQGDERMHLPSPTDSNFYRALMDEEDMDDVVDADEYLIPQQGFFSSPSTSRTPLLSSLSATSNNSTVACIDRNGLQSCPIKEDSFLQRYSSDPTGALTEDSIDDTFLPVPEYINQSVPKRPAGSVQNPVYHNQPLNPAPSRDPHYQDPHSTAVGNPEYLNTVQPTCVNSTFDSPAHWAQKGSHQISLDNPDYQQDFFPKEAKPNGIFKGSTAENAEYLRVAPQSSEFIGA
Procedure: The exemplified compounds described herein were tested according to the assay below. The enzyme data reported in Tables 4-5 is generally a representative of multiple experiments.
Reactions proceed for 30 minutes at room temperature (22° C.) and are terminated with 80 mM 2,2′,2″,2″′-(ethane-1,2-diyldinitrilo)tetraacetic acid (EDTA). Product is detected using the Caliper mobility shift detection method where product and substrate are electrophoretically separated and measured.

[1] = target: T3, phosphor-EGFR in H1975(L585R/T790M) mutant EGFR expressing cells (Homo sapiens, UniProt P00533, L858R/T790M); experiment: H1975 pEGFR MSD cellular assay; assay type: cell-based; conditions: NCI-H1975 cells, serum starved, 1 hour compound incubation, pEGFR Tyr1068 MSD; read-out: HI975 pEGFR EC50
T3 construct: host or cells: NCI-H1975
T3 sequence (P00533 25-1210 T790M/L858R): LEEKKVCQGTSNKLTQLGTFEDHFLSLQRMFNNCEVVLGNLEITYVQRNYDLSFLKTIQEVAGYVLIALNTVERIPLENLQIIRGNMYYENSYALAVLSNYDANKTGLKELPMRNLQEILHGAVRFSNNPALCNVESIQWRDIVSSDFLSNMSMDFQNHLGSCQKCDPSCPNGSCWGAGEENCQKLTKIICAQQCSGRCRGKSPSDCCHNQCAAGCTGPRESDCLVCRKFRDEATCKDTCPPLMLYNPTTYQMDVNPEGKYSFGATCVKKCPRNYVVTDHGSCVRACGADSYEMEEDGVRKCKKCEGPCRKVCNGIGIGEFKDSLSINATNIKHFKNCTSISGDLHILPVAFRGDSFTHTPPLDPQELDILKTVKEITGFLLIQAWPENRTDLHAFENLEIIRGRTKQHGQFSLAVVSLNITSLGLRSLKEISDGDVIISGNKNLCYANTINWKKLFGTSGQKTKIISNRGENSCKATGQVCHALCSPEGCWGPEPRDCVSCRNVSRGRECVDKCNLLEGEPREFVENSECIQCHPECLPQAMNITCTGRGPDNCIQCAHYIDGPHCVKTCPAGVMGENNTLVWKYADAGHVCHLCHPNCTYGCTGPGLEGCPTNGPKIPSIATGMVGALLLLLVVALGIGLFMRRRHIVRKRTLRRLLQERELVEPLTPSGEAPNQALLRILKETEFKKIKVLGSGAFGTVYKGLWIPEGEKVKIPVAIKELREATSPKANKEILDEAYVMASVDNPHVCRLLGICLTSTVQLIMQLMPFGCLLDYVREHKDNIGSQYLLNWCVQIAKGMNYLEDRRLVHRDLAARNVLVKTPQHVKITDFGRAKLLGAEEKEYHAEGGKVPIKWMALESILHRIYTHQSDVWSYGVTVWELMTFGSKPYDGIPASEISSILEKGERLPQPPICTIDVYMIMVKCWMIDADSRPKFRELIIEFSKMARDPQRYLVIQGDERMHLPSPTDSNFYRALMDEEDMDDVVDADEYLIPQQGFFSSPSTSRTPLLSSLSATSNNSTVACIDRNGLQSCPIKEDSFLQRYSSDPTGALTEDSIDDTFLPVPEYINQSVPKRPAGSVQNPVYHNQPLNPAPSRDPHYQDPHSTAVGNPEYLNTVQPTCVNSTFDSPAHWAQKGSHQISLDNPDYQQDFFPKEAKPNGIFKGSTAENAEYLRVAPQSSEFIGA
Outline: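 Phospho-EGFR read by MSD electrochemiluminescence: capture with anti-pEGFR antibody (overnight, 4° C), detection with SULFO-TAG anti-total EGFR (1 hour, room temperature). Before lysis, H1975 cells starved of serum overnight got compound for 1 hour at 37° C, 0.5% DMSO final. EC50 via four-parameter logistic regression of percent inhibition.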

[2] = test system: H1975 (EGFR T790M/L858R) cell proliferation; experiment: H1975 proliferation assay (Cell Titer-Glo); assay type: cell-based; conditions: Homo sapiens, NCI-H1975, 72 h, NCI-H1975 cells, 72 hour incubation, read-out: H1975 antiproliferative EC50
Procedure: H1975 Proliferation Assays
All cell culture reagents were purchased from Invitrogen/Gibco. Cells are cultured at 37° C. at 5% CO2 and split as recommended by ATCC.

T1 sequence (P00533 25-1210 T790M/L858R): as above

Row | Structure (SMILES) | Ki (EGFR T790M L858R) | Ki (EGFR del746-750 T790M) | EC50 [1] | EC50 [2]
1 | CCC(C)n1nc(N2CC[C@@H](O)C2)c2cnc(Nc3ccnc(N4CCC(CC#N)(OC)CC4)n3)cc21 (mixture of isomers) [Example 81, 2-(1-(4-(1-sec-Butyl-3-((R)-3-hydroxypyrrolidin-1-yl)-1H-pyrazolo[4,3-c]pyridin-6-ylamino)pyrimidin-2-yl)-4-methoxypiperidin-4-yl)acetonitrile] | 0.0064 µM | 0.0071 µM | 0.265 µM | 1.47 µM
2 | CCC(C)n1nc(N2CCNC2=O)c2cnc(Nc3ccnc(N4CC[C@H](OC)[C@H](F)C4)n3)cc21 (mixture of isomers) [Example 98, 1-{1-(sec-Butyl)-6-[2-((3R,4S)-3-fluoro-4-methoxypiperidin-1-yl)pyrimidin-4-ylamino]-1H-pyrazolo[4,3-c]pyridin-3-yl}imidazolidin-2-one] | 0.001 µM | 0.0018 µM | 0.0395 µM | 0.256 µM
3 | CCC(C)n1nc(N2C[C@@H](CO)NC2=O)c2cnc(Nc3ccnc(N4CCC(C)(O)CC4)n3)cc21 (mixture of isomers) [Example 176, (4S)-1-(1-sec-Butyl-6-(2-(4-hydroxy-4-methylpiperidin-1-yl)pyrimidin-4-ylamino)-1H-pyrazolo[4,3-c]pyridin-3-yl)-4-(hydroxymethyl)imidazolidin-2-one] | 0.0033 µM | 0.0121 µM | 3.98 µM | > 10 µM
4 | CC(C)n1nc(N2CC3(COC3)C2)c2cnc(Nc3ccnc(N4CCC(O)C(F)C4)n3)cc21 (racemic) [Example 21, (±)-cis-3-Fluoro-1-{4-[1-isopropyl-3-(2-oxa-6-azaspiro[3.3]hept-6-yl)-1H-pyrazolo[4,3-c]pyridin-6-ylamino]-pyrimidin-2-yl}piperidin-4-ol] | 0.0012 µM | 0.003 µM | 0.0361 µM | 0.39 µM
5 | CC(C)n1nc(N2CCNC2=O)c2cnc(Nc3ccnc(N4CCC(O)C(F)C4)n3)cc21 (racemic) [Example 22, (±)-1-(6-((2-(cis-3-Fluoro-4-hydroxypiperidin-1-yl)pyrimidin-4-yl)amino)-1-isopropyl-1H-pyrazolo[4,3-c]pyridin-3-yl)imidazolidin-2-one] | 0.0054 µM | 0.0205 µM | 0.487 µM | > 3 µM
6 | COC1CCN(c2nccc(Nc3cc4c(cn3)c(N3CC5(COC5)C3)nn4C(C)C)n2)CC1F (racemic) [Example 23, (±)-2-(cis-3-Fluoro-4-methoxypiperidin-1-yl)pyrimidin-4-yl]-[1-isopropyl-3-(2-oxa-6-azaspiro[3.3]hept-6-yl)-1H-pyrazolo[4,3-c]pyridin-6-yl]amine] | 0.0011 µM | 0.0039 µM | 0.0231 µM | 0.248 µM
7 | CC(C)n1nc(N2CCC(C(N)=O)C2)c2cnc(Nc3ccnc(-c4cnn(S(=O)(=O)C5CC5)c4)n3)cc21 (stereo not shown) [Example 60, 1-(6-(2-(1-(cyclopropylsulfonyl)-1H-pyrazol-4-yl)pyrimidin-4-ylamino)-1-isopropyl-1H-pyrazolo[4,3-c]pyridin-3-yl)pyrrolidine-3-carboxamide] | – | 0.0005 µM | 0.0282 µM | 0.608 µM
8 | CC(C)n1nc(NC2CNC(=O)C2)c2cnc(Nc3ccnc(N4CCC(C)(O)CC4)n3)cc21 (stereo not shown) [Example 77, 4-(6-(2-(4-Hydroxy-4-methylpiperidin-1-yl)pyrimidin-4-ylamino)-1-isopropyl-1H-pyrazolo[4,3-c]pyridin-3-ylamino)pyrrolidin-2-one] | 0.0187 µM | 0.0292 µM | – | > 10 µM
9 | CC(C)n1nc(N2CCN(C(=O)C(C)(C)O)CC2)c2cnc(Nc3ccnc(N4CCC(C)(O)CC4)n3)cc21 [Example 78, 2-Hydroxy-1-(4-(6-(2-(4-hydroxy-4-methylpiperidin-1-yl)pyrimidin-4-ylamino)-1-isopropyl-1H-pyrazolo[4,3-c]pyridin-3-yl)piperazin-1-yl)-2-methylpropan-1-one] | 0.0215 µM | 0.0755 µM | – | –
10 | CC1CCC(C)N1c1nn(C(C)C)c2cc(Nc3ccnc(-c4cnn(S(=O)(=O)C5CC5)c4)n3)ncc12 (stereo not shown) [Example 91, N-(2-(1-(Cyclopropylsulfonyl)-1H-pyrazol-4-yl)pyrimidin-4-yl)-3-(2,5-dimethylpyrrolidin-1-yl)-1-isopropyl-1H-pyrazolo[4,3-c]pyridin-6-amine] | 0.0202 µM | 0.0204 µM | – | –
11 | CC(C)n1nc(C#N)c2cnc(Nc3ccnc(-c4cnn(S(=O)(=O)C5CC5)c4)n3)cc21 [Example 93, 6-(2-(1-(Cyclopropylsulfonyl)-1H-pyrazol-4-yl)pyrimidin-4-ylamino)-1-isopropyl-1H-pyrazolo[4,3-c]pyridine-3-carbonitrile] | 0.11 µM | 0.0654 µM | – | –
12 | CC(C)n1nc(C2(C)CCCO2)c2cnc(Nc3ccnc(N4CCC(C)(O)CC4)n3)cc21 (stereo not shown) [Example 94, 1-(4-(1-Isopropyl-3-(2-methyltetrahydrofuran-2-yl)-1H-pyrazolo[4,3-c]pyridin-6-ylamino)pyrimidin-2-yl)-4-methylpiperidin-4-ol] | 0.872 µM | > 2.9 µM | – | –
13 | CC(C)n1nc(C2=NC(C)(C)NC2=O)c2cnc(Nc3ccnc(N4CCC(C)(O)CC4)n3)cc21 [Example 95, 4-(6-(2-(4-Hydroxy-4-methylpiperidin-1-yl)pyrimidin-4-ylamino)-1-isopropyl-1H-pyrazolo[4,3-c]pyridin-3-yl)-2,2-dimethyl-1,2-dihydroimidazol-5-one] | 0.0152 µM | 0.0595 µM | – | –
14 | CCC(=O)N1CCN(c2nn(C(C)C)c3cc(Nc4ccnc(N5CCC(C)(O)CC5)n4)ncc23)CC1 [Example 134, 1-(4-(6-(2-(4-Hydroxy-4-methylpiperidin-1-yl)pyrimidin-4-ylamino)-1-isopropyl-1H-pyrazolo[4,3-c]pyridin-3-yl)piperazin-1-yl)propan-1-one] | 0.0115 µM | 0.0337 µM | – | –
15 | CC(C)n1nc(N2CCN(C(=O)CO)CC2)c2cnc(Nc3ccnc(N4CCC(C)(O)CC4)n3)cc21 [Example 135, 2-Hydroxy-1-(4-(6-(2-(4-hydroxy-4-methylpiperidin-1-yl)pyrimidin-4-ylamino)-1-isopropyl-1H-pyrazolo[4,3-c]pyridin-3-yl)piperazin-1-yl)ethanone] | 0.0103 µM | 0.0463 µM | – | –
16 | CC(O)C(=O)N1CCN(c2nn(C(C)C)c3cc(Nc4ccnc(N5CCC(C)(O)CC5)n4)ncc23)CC1 (stereo not shown) [Example 136, 2-Hydroxy-1-(4-(6-(2-(4-hydroxy-4-methylpiperidin-1-yl)pyrimidin-4-ylamino)-1-isopropyl-1H-pyrazolo[4,3-c]pyridin-3-yl)piperazin-1-yl)propan-1-one] | 0.0106 µM | 0.0399 µM | – | –
17 | CC1COCC(C)N1c1nn(C(C)C)c2cc(Nc3ccnc(-c4cnn(S(=O)(=O)C5CC5)c4)n3)ncc12 (stereo not shown) [Example 180, N-(2-(1-(Cyclopropylsulfonyl)-1H-pyrazol-4-yl)pyrimidin-4-yl)-3-(3,5-dimethylmorpholino)-1-isopropyl-1H-pyrazolo[4,3-c]pyridin-6-amine] | 0.302 µM | 0.201 µM | – | > 10 µM
18 | CCC(C)n1nc(N2CC[C@H](O)C2=O)c2cnc(Nc3ccnc(N4CC[C@@H](O)[C@@H](F)C4)n3)cc21 (stereo partly drawn) [Example 201, (3S)-1-(1-(sec-Butyl)-6-((2-((3S,4R)-3-fluoro-4-hydroxypiperidin-1-yl)pyrimidin-4-yl)amino)-1H-pyrazolo[4,3-c]pyridin-3-yl)-3-hydroxypyrrolidin-2-one] | 0.0058 µM | 0.014 µM | – | > 10 µM

From patent publication US9951064B2, “Azaindazole compounds as inhibitors of T790M containing EGFR mutants” (Genentech, Inc., priority 2013, dated 2018)
